# Measurements as given in the supplement of paper PMC10307832.
# Assays:
# Test in all cases: relative viability (nuclei count vs DMSO), 5 days (fraction); higher = more cells survive
# NCI-H661 = system: NCI-H661
# Method in brief: (§1)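 Five library-drug doses in √10 steps were combined with a fixed anchor-drug dose, or a single drug was given alone, by pin tool to lung cancer cell lines in 1536-well plates the day after seeding. Nuclei were stained and counted after 5 days. Relative viability is the nuclei count in treated wells over that in vehicle wells, taken as the median of duplicate plates.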
# LCLC-97TM1 = system: LCLC-97TM1
# Method in brief: as §1
# NCI-H1915 = system: NCI-H1915
# Method in brief: as §1
# NCI-H1993 = system: NCI-H1993
# Method in brief: as §1
# PC-3 [JPC-3] = system: PC-3 [JPC-3]
# Method in brief: as §1
# NCI-H2009 = system: NCI-H2009
# Method in brief: as §1
# NCI-H441 = system: NCI-H441
# Method in brief: as §1
# NCI-H1437 = system: NCI-H1437
# Method in brief: as §1
# COR-L 105 = system: COR-L 105
# Method in brief: as §1
# A-427 = system: A-427
# Method in brief: as §1
# NCI-H2347 = system: NCI-H2347
# Method in brief: as §1
# NCI-H520 = system: NCI-H520
# Method in brief: as §1
# NCI-H2023 = system: NCI-H2023
# Method in brief: as §1
# NCI-H838 = system: NCI-H838
# Method in brief: as §1
# NCI-H522 = system: NCI-H522
# Method in brief: as §1
# NCI-H2342 = system: NCI-H2342
# Method in brief: as §1
# COR-L23 = system: COR-L23
# Method in brief: as §1
# LXF-289 = system: LXF-289
# Method in brief: as §1
# ABC-1 = system: ABC-1
# Method in brief: as §1
# HOP-62 = system: HOP-62
# Method in brief: as §1
# NCI-H460 = system: NCI-H460
# Method in brief: as §1
# NCI-H1651 = system: NCI-H1651
# Method in brief: as §1
compound,measurement,setting,value
C=C1C(=O)O[C@@H](CCCCCCCC)[C@@H]1C(=O)O [C-75] + Nc1ncn([C@H]2C[C@H](O)[C@@H](CO)O2)c(=O)n1 [Decitabine] (partner 2 µM),relative viability,NCI-H661; first compound 0.08 µM,0.545
same,relative viability,NCI-H661; first compound 0.253 µM,0.54
same,relative viability,NCI-H661; first compound 0.8 µM,0.519
same,relative viability,NCI-H661; first compound 2.53 µM,0.41
same,relative viability,NCI-H661; first compound 8 µM,0.448
same,relative viability,LCLC-97TM1; first compound 0.08 µM,0.197
same,relative viability,LCLC-97TM1; first compound 0.253 µM,0.254
same,relative viability,LCLC-97TM1; first compound 0.8 µM,0.206
same,relative viability,LCLC-97TM1; first compound 2.53 µM,0.215
same,relative viability,LCLC-97TM1; first compound 8 µM,0.233
same,relative viability,NCI-H1915; first compound 0.08 µM,0.254
same,relative viability,NCI-H1915; first compound 0.253 µM,0.24
same,relative viability,NCI-H1915; first compound 0.8 µM,0.296
same,relative viability,NCI-H1915; first compound 2.53 µM,0.24
same,relative viability,NCI-H1915; first compound 8 µM,0.225
same,relative viability,NCI-H1993; first compound 0.08 µM,0.695
same,relative viability,NCI-H1993; first compound 0.253 µM,0.685
same,relative viability,NCI-H1993; first compound 0.8 µM,0.605
same,relative viability,NCI-H1993; first compound 2.53 µM,0.549
same,relative viability,NCI-H1993; first compound 8 µM,0.571
same,relative viability,PC-3 [JPC-3]; first compound 0.08 µM,0.78
same,relative viability,PC-3 [JPC-3]; first compound 0.253 µM,0.798
same,relative viability,PC-3 [JPC-3]; first compound 0.8 µM,0.782
same,relative viability,PC-3 [JPC-3]; first compound 2.53 µM,0.793
same,relative viability,PC-3 [JPC-3]; first compound 8 µM,0.91
same,relative viability,NCI-H2009; first compound 0.08 µM,0.37
same,relative viability,NCI-H2009; first compound 0.253 µM,0.393
same,relative viability,NCI-H2009; first compound 0.8 µM,0.327
same,relative viability,NCI-H2009; first compound 2.53 µM,0.314
same,relative viability,NCI-H2009; first compound 8 µM,0.338
same,relative viability,NCI-H441; first compound 0.08 µM,0.299
same,relative viability,NCI-H441; first compound 0.253 µM,0.23
same,relative viability,NCI-H441; first compound 0.8 µM,0.287
same,relative viability,NCI-H441; first compound 8 µM,0.212
same,relative viability,NCI-H1437; first compound 0.08 µM,0.57
same,relative viability,NCI-H1437; first compound 0.253 µM,0.586
same,relative viability,NCI-H1437; first compound 0.8 µM,0.577
same,relative viability,NCI-H1437; first compound 8 µM,0.48
same,relative viability,COR-L 105; first compound 0.08 µM,0.7
same,relative viability,COR-L 105; first compound 0.253 µM,0.685
same,relative viability,COR-L 105; first compound 0.8 µM,0.582
same,relative viability,COR-L 105; first compound 2.53 µM,0.477
same,relative viability,COR-L 105; first compound 8 µM,0.606
same,relative viability,A-427; first compound 0.08 µM,0.607
same,relative viability,A-427; first compound 0.253 µM,0.533
same,relative viability,A-427; first compound 0.8 µM,0.487
same,relative viability,A-427; first compound 2.53 µM,0.428
same,relative viability,A-427; first compound 8 µM,0.512
same,relative viability,NCI-H2347; first compound 0.08 µM,0.673
same,relative viability,NCI-H2347; first compound 0.253 µM,0.626
same,relative viability,NCI-H2347; first compound 0.8 µM,0.653
same,relative viability,NCI-H2347; first compound 2.53 µM,0.572
same,relative viability,NCI-H2347; first compound 8 µM,0.659
same,relative viability,NCI-H520; first compound 0.08 µM,0.488
same,relative viability,NCI-H520; first compound 0.253 µM,0.522
same,relative viability,NCI-H520; first compound 0.8 µM,0.498
same,relative viability,NCI-H520; first compound 2.53 µM,0.456
same,relative viability,NCI-H520; first compound 8 µM,0.356
same,relative viability,NCI-H2023; first compound 0.08 µM,0.242
same,relative viability,NCI-H2023; first compound 0.253 µM,0.22
same,relative viability,NCI-H2023; first compound 0.8 µM,0.22
same,relative viability,NCI-H2023; first compound 8 µM,0.188
same,relative viability,NCI-H838; first compound 0.08 µM,0.445
same,relative viability,NCI-H838; first compound 0.253 µM,0.45
same,relative viability,NCI-H838; first compound 0.8 µM,0.434
same,relative viability,NCI-H838; first compound 2.53 µM,0.369
same,relative viability,NCI-H838; first compound 8 µM,0.372
same,relative viability,NCI-H522; first compound 0.08 µM,0.741
same,relative viability,NCI-H522; first compound 0.253 µM,0.693
same,relative viability,NCI-H522; first compound 0.8 µM,0.763
same,relative viability,NCI-H522; first compound 2.53 µM,0.555
same,relative viability,NCI-H522; first compound 8 µM,0.599
same,relative viability,NCI-H2342; first compound 0.08 µM,0.749
same,relative viability,NCI-H2342; first compound 0.253 µM,0.785
same,relative viability,NCI-H2342; first compound 0.8 µM,0.667
same,relative viability,NCI-H2342; first compound 2.53 µM,0.57
same,relative viability,NCI-H2342; first compound 8 µM,0.722
same,relative viability,COR-L23; first compound 0.08 µM,0.483
same,relative viability,COR-L23; first compound 0.253 µM,0.486
same,relative viability,COR-L23; first compound 0.8 µM,0.415
same,relative viability,COR-L23; first compound 2.53 µM,0.459
same,relative viability,COR-L23; first compound 8 µM,0.396
same,relative viability,LXF-289; first compound 0.08 µM,0.361
same,relative viability,LXF-289; first compound 0.253 µM,0.396
same,relative viability,LXF-289; first compound 0.8 µM,0.317
same,relative viability,LXF-289; first compound 2.53 µM,0.3
same,relative viability,LXF-289; first compound 8 µM,0.399
same,relative viability,ABC-1; first compound 0.08 µM,1.03
same,relative viability,ABC-1; first compound 0.253 µM,1.18
same,relative viability,ABC-1; first compound 0.8 µM,1.08
same,relative viability,ABC-1; first compound 2.53 µM,0.72
same,relative viability,ABC-1; first compound 8 µM,0.81
same,relative viability,HOP-62; first compound 0.08 µM,0.22
same,relative viability,HOP-62; first compound 0.253 µM,0.217
same,relative viability,HOP-62; first compound 0.8 µM,0.218
same,relative viability,HOP-62; first compound 2.53 µM,0.23
same,relative viability,HOP-62; first compound 8 µM,0.161
same,relative viability,NCI-H460; first compound 0.08 µM,0.469
same,relative viability,NCI-H460; first compound 0.253 µM,0.454
same,relative viability,NCI-H460; first compound 0.8 µM,0.46
same,relative viability,NCI-H460; first compound 2.53 µM,0.198
same,relative viability,NCI-H460; first compound 8 µM,0.492
same,relative viability,NCI-H1651; first compound 0.08 µM,0.565
same,relative viability,NCI-H1651; first compound 0.253 µM,0.685
same,relative viability,NCI-H1651; first compound 0.8 µM,0.559
same,relative viability,NCI-H1651; first compound 2.53 µM,0.381
same,relative viability,NCI-H1651; first compound 8 µM,0.599
